Data as given in US9493539B2, “Peptides associated with HLA-DR MHC class II molecules involved in autoimmune diseases” (LONDON HEALTH SCIENCES CENTRE RESEARCH INC., priority 2003, dated 2016).
Square brackets hold non-standard residues; d marks the D form. Ends that are not written are not given here. Cit = NC(=O)NCCC[C@H](N)C(=O)O

Key:
[1] = tested on: draining lymph node cells; assay: T cell proliferation recall response ([3H] thymidine) after peptide immunization of DR4-IE tg mice; type: cell-based, mouse; conditions: for T cell proliferative response: DR4-IE tg mice immunized with the peptide, 10 days later cells challenged in vitro with same peptide; for proliferative response in presence of anti-DR antibody: immunizing peptide plus anti-DR antibody
Protocol: (§1) DR4 tg mice were immunized intradermally at the interior side of both hind legs with 100 μl of peptide (1 μg/μl) emulsified in CFA (Difco Laboratories, Detroit, Mich.) in a 1:1 volume ratio. After 10 days, mice were sacrificed and their draining lymph nodes were removed for in vitro proliferation and cytokine assays.
(§2) Cell suspensions were prepared from the draining lymph nodes and cultured in 96-well plates at a concentration of 4×10^5 cells/well in the presence or absence of peptide antigen for 4 days. Anti-DR antibody (BD PharMingen, Mississauga, ON) was added to some cultures (1 μg/ml) to confirm DR restricted T cell responses as described previously (Andersson E C, Hansen B E, Jacobsen H, Madsen L S, Andersen C B, Engberg J, Rothbard J B, McDevitt G S, Malmstrom V, Holmdahl R, Svejgaard A, Fugger L. 1998. Definition of MHC and T cell receptor contacts in the HLA-DR4 restricted immunodominant epitope in type II collagen and characterization of collagen-induced arthritis in HLA-DR4 and human CD4 transgenic mice. Proc. Natl. Acad. Sci. USA. 95:7574). Culture supernatants were removed after 78 hrs to test IFN-γ production by ELISA (BD PharMingen, Mississauga, ON) as described previously (Hill, J. A., Wang, D., Jevnikar, A. M., Cairns, E., Bell, D. A. 2002. The relationship between predicted peptide-MHC class II affinity and T cell activation in a HLA-DRβ1*0401 MHC class II mouse model. Arthritis Res. 5:R40). Cytokine production was measured in duplicate and represents the average antigen specific cytokine production (cytokine production in control samples+2 SD were subtracted from the peptide specific cytokine production)±SD. Eighteen hours before culture termination, 1 μCi of [^3H] thymidine (ICN Biomedicals, Montreal, PQ) was added to each well to assess T cell proliferation. Proliferation experiments were conducted in triplicate and results are presented as average proliferation in cpm±SD or stimulation index (cpm of experimental sample/cpm of control sample)±SEM.

[2] = tested on: draining lymph node cells; assay: IFN-γ production by ELISA after in vitro challenge with immunizing peptide; type: cell-based, mouse; conditions: DR4-IE tg mice immunized with the peptide
Protocol: as §1, §2

HLA-DRB1*0101 = HLA-DRB1*0101 (Homo sapiens, UniProt P01903+P01911, A100R/D57E/F55L/F60I/F76Y/I96L/L162R/M171V/P40L/Q125E/R42F/V115G/Y59C); assay: Peptide-binding (competition) assay to purified MHC class II; conditions: DRB1*0101, shared epitope positive
Protocol: (§3) Peptide binding affinity to purified HLA-DRB1*0101, *0401, *0404, *0301, *0701, *0802, *1101, and *1302 molecules was determined relative to radio-labelled peptide probes as described previously (Southwood S, Sidney J, Kondo A, del Guercio M F, Appella E, Hoffman S, Kubo R T, Chesnut R W, Grey H M, Sette A. 1998. Several common HLA-DR types share largely overlapping peptide binding repertoires. J. Immunol. 160:3363). The nM concentration of unlabelled vimentin peptide necessary for 50% inhibition of the labelled peptide to the purified HLA-DRB1 molecules (IC50) was used as an approximation of the affinity of interaction ([…]). Results are expressed as the inverse of the IC50 values measured in nM.

HLA-DRB1*0404 = HLA-DRB1*0404 (Homo sapiens, UniProt P01903+P01911, A100R/A169T/F76Y/I96L/K127E/L162R/M171V/N62H/P40V/Q125Y/R42H/S133A/S149N/S66Y/V209L/W38E); assay: as above; conditions: DRB1*0404, shared epitope positive
Protocol: as §3

HLA-DRB1*0401 = HLA-DRB1*0401 (Homo sapiens, UniProt P01903+P01911, A100K/A169T/F76Y/I96L/K127E/L162R/M171V/N62H/P40V/Q125Y/R42H/S133A/S149N/S66Y/V115G/V209L/W38E); assay: as above; conditions: DRB1*0401, shared epitope positive
Protocol: as §3

[3] = tested on: shared epitope negative (DRB1*0301, *0701, *0802, *1101, *1302); assay: as above; design: species or system human
Protocol: as §3

Question: Which “T cell proliferative response” value [1] does the source give for “AGWLACitRSVRYPI (AGWLA[Cit]RSVRYPI) [P4Cit, altered human aggrecan peptide 280-292]” here?
Answer: induced

Question: And the “proliferative response in presence of anti-DR antibody” value [1]?
Answer: inhibited

Question: And the IFN-γ production [2]?
Answer: induced

Question: What does the source list for “AGWLADRSVRYPI (Human) [P4D, human aggrecan peptide 280-292]”?
Answer: T cell proliferative response [1]: strong proliferative response; proliferative response in presence of anti-DR antibody [1]: inhibited; IFN-γ production [2]: accompanied by IFN-γ production

Question: Which “T cell proliferative response” value [1] does the source give for “AGWLARRSVRYPI (Human) [P4R, altered human aggrecan peptide 280-292]” here?
Answer: did not induce

Question: And the IFN-γ production [2]?
Answer: did not induce

Question: What does the source list for “SAVRACitSSVPGVR (SAVRA[Cit]SSVPGVR) [Vim R70Cit, altered human vimentin peptide 65-77]”?
Answer: T cell proliferative response [1]: strong proliferative response; proliferative response in presence of anti-DR antibody [1]: could also be inhibited; IFN-γ production [2]: accompanied by IFN-γ production; relative affinity for purified MHC (HLA-DRB1*0101): strikingly high affinity; relative affinity for purified MHC (HLA-DRB1*0404): strikingly high affinity; relative affinity for purified MHC (HLA-DRB1*0401): strikingly high affinity; change of peptide affinity on conversion of arginine to citrulline ([3]; vs Vim 65-77): did not increase peptide affinity

Question: For “SAVRARSSVPGVR (Human) [Vim 65-77, human vimentin peptide 65-77, unmodified]”, which “T cell proliferative response” value [1] is on record?
Answer: did not induce T cell activation

Question: What about the “activation of T cells primed by Vim R70Cit” value ([1]; Vim R70Cit immunized mice, challenged with the unmodified peptide, 10 μg/ml) of the same substance?
Answer: could not be activated

Question: What about the IFN-γ production [2] of the same substance?
Answer: did not induce T cell activation

Question: What about the “relative affinity for purified MHC” value (HLA-DRB1*0101) of the same substance?
Answer: low to intermediate affinity

Question: What about the “relative affinity for purified MHC” value (HLA-DRB1*0404) of the same substance?
Answer: low to intermediate affinity

Question: What about the “relative affinity for purified MHC” value (HLA-DRB1*0401) of the same substance?
Answer: low to intermediate affinity

Question: What about the “relative affinity for purified MHC” value [3] of the same substance?
Answer: low to intermediate affinity
